Results reported in EP0354453A2, “Antimicrobial agent for animals” (priority 1988, dated 1990).

Experiments:
[1] = test system: Bordetella bronchiaseptica AR3; test: in vitro antimicrobial activity (MIC), agar dilution, Part 1; format: cell-based; conditions: Bordetella bronchiaseptica AR3, Pig; Mueller Hinton agar, 37°C, 18-24 hours
Procedure: (§1) Test microorganisms listed in Table 2 were cultured overnight in heart infusion nutrient broth (produced by Eiken Chemical Co., Ltd.). Culture broth containing about 10⁸/ml cells was diluted to a volume of 100 times. An aliquot (about 0.05 ml) of the diluted broth was inoculated onto a Mueller Hinton agar plate (produced by Eiken Chemical Co., Ltd.) to which Compound No. 1 was added in a prescribed concentration. […]

Escherichia coli 15-4 = test: as above; format: cell-based; conditions: 154; Escherichia coli 15-4, Cow; Mueller Hinton agar, 37°C, 18-24 hours
Procedure: as §1

Escherichia coli 164 = test: as above; format: cell-based; conditions: Escherichia coli 164, Pig; Mueller Hinton agar, 37°C, 18-24 hours
Procedure: as §1

Escherichia coli 442 = test: as above; format: cell-based; conditions: Escherichia coli 442, Chicken; Mueller Hinton agar, 37°C, 18-24 hours
Procedure: as §1

[2] = test system: Salmonella typhimurium 101; test: as above; format: cell-based; conditions: Salmonella enterica; Salmonella typhimurium 101, Chicken; Mueller Hinton agar, 37°C, 18-24 hours
Procedure: as §1

[3] = test system: Salmonella typhimurium 595; test: as above; format: cell-based; conditions: Salmonella enterica; Salmonella typhimurium 595, Pig; Mueller Hinton agar, 37°C, 18-24 hours
Procedure: as §1

[4] = test system: Staphylococcus aureus Aichi 2; test: as above; format: cell-based; conditions: AICHI2; Staphylococcus aureus Aichi 2, Chicken; Mueller Hinton agar, 37°C, 18-24 hours
Procedure: as §1

[5] = test system: Bordetella bronchiaseptica OKM-1; test: in vitro antimicrobial activity (MIC), agar dilution, Part 2; format: cell-based; conditions: Bordetella, OKM1, Bordetella bronchiaseptica OKM-1, Pig; read-out: MIC
Procedure: as §1
(§2) MIC of Compounds (1)-(8) against various pathogenic bacteria derived from animals was determined in the same manner as in Example 1.

Escherichia coli 139 = test: as above; format: cell-based; conditions: Escherichia coli 139, Cow; read-out: MIC
Procedure: as §1, §2

Escherichia coli 881 = test: as above; format: cell-based; conditions: Escherichia coli, 881, Escherichia coli 881, Pig; read-out: MIC
Procedure: as §1, §2

Escherichia coli S6W = test: as above; format: cell-based; conditions: Escherichia coli, S6W, Escherichia coli S6W, Chicken; read-out: MIC
Procedure: as §1, §2

[6] = test system: Salmonella typhimurium 103; test: as above; format: cell-based; conditions: Salmonella enterica; Salmonella typhimurium 103, Chicken; read-out: MIC
Procedure: as §1, §2

[7] = test system: Salmonella typhimurium 569; test: as above; format: cell-based; conditions: Salmonella enterica, TYPHIMURIUM, Salmonella typhimurium 569, Pig; read-out: MIC
Procedure: as §1, §2

[8] = test system: Staphylococcus aureus Yamaguchi 6; test: as above; format: cell-based; conditions: Staphylococcus aureus Yamaguchi 6, Chicken; read-out: MIC
Procedure: as §1, §2

[9] = test system: Mycoplasma gallisepticum Strain 2004; test: in vitro antimicrobial activity (MIC) in Frey liquid medium; format: cell-based; conditions: Mycoplasmoides gallisepticum, STRAIN2004; Mycoplasma gallisepticum Strain 2004, from chicken; Frey liquid medium, 37°C, 3-5 days; read-out: MIC
Procedure: (§3) Various test strains of Mycoplasma gallisepticum derived from chicken were cultured in a Frey liquid medium for Mycoplasma for 3 days. The culture broth containing about 10⁸/ml cells was diluted to a volume of 100 times. The diluted broth was inoculated into Frey liquid media for Mycoplasma to which the compounds of this invention were added at prescribed concentrations. The cells were incubated at 37°C for 3-5 days while daily observing the color of the media. Among the culture broths maintaining yellow color at the time when the control to which no test compound was added turned red, the concentration of the broth having the minimum concentration was taken as the MIC of the compound.

[10] = test system: Mycoplasma gallisepticum Strain 2012; test: as above; format: cell-based; conditions: Mycoplasmoides gallisepticum, STRAIN2012; Mycoplasma gallisepticum Strain 2012, from chicken; Frey liquid medium, 37°C, 3-5 days; read-out: MIC
Procedure: as §3

[11] = test system: Mycoplasma gallisepticum Strain DP-1047; test: as above; format: cell-based; conditions: Mycoplasmoides gallisepticum; Mycoplasma gallisepticum Strain DP-1047, from chicken; Frey liquid medium, 37°C, 3-5 days; read-out: MIC
Procedure: as §3

[12] = test system: Mycoplasma gallisepticum Strain T-2; test: as above; format: cell-based; conditions: Mycoplasmoides gallisepticum; Mycoplasma gallisepticum Strain T-2, from chicken; Frey liquid medium, 37°C, 3-5 days; read-out: MIC
Procedure: as §3

[13] = test system: Mycoplasma gallisepticum Strain T-7; test: as above; format: cell-based; conditions: Mycoplasmoides gallisepticum, Mycoplasma gallisepticum Strain T-7, from chicken, 37°C, 3-5 days
Procedure: as §3

Escherichia coli = test: Effect of oral administration on chicken inoculated with Escherichia coli; format: in vivo; conditions: for Chickens developing disease in air sac (naked eye observation) / No. of dead chickens: 5 tested chickens
Procedure: Escherichia coli cells collected from infected chicken were cultured overnight in a trypticase soy broth (BBL). 0.2 ml of this culture broth was injected into the trachea of chickens of average body weight of 80 g using a 1 ml disposable injection needle. Beginning 2 hours after the inoculation, feeds to which Compound (1) had been added in the amount of 50 ppm, 25 ppm, or 12.5 ppm were freely given to the chickens for 5 days. Following the administration of Compound (1) the chickens were given feed with no addition of drug for 5 days. The surviving chickens were sacrificed and dissected. After examination of the degree of disease in the air sac, Escherichia coli in the trachea, lung, and air sac were quantitatively determined. […]

Mycoplasma gallisepticum = test: Effect of oral administration on chicken inoculated with Mycoplasma gallisepticum; format: in vivo; conditions: for Chickens developing disease in air sac (naked eye observation) / No. of dead chickens: 5 tested chickens
[14] = test system: pathogenic bacteria derived from animals; test: in vitro antimicrobial activity, Part 1, overall comparison; format: cell-based; conditions: summary of Table 2
Procedure: as §1

C[C@H]1COc2c(N3CCN(C)CC3)c(F)cc3c(=O)c(C(=O)O)cn1c23 [Compound (1), 3S-9-fluoro-2,3-dihydro-3-methyl-10-(4-methyl-1-piperazinyl)-7-oxo-7H-pyrido[1,2,3-de] [1,4]benzoxazine-6-carboxylic acid hemihydrate]
MIC [1]: 0.2 µg/mL | MIC (Escherichia coli 15-4): 0.05 µg/mL | MIC (Escherichia coli 164): 0.05 µg/mL | MIC (Escherichia coli 442): 0.025 µg/mL | MIC [2]: 0.025 µg/mL | MIC [3]: 0.05 µg/mL | MIC [4]: 0.1 µg/mL | MIC [5]: 0.2 µg/mL | MIC (Escherichia coli 139): 0.05 µg/mL | MIC (Escherichia coli 881): 0.05 µg/mL | MIC (Escherichia coli S6W): 0.025 µg/mL | MIC [6]: 0.05 µg/mL | MIC [7]: 0.05 µg/mL | MIC [8]: 0.05 µg/mL | MIC [9]: 0.0125 µg/mL | MIC [10]: 0.025 µg/mL | MIC [11]: 0.025 µg/mL | MIC [12]: 0.05 µg/mL | MIC [13]: 0.05 µg/mL | Escherichia coli collected in Air sac (Escherichia coli; 12.5 ppm in feed for 5 days): 3.99 Logarithmic number of collected cells per 1 g of tissue | Escherichia coli collected in Lung (Escherichia coli; 12.5 ppm in feed for 5 days): 2.78 Logarithmic number of collected cells per 1 g of tissue | Escherichia coli collected in Trachea (Escherichia coli; 12.5 ppm in feed for 5 days): 2.78 Logarithmic number of collected cells per 1 g of tissue | Chickens developing disease in air sac (naked eye observation) (Escherichia coli; 12.5 ppm in feed for 5 days): 3 | No. of dead chickens (Escherichia coli; 12.5 ppm in feed for 5 days): 1 | Escherichia coli collected in Air sac (Escherichia coli; 25 ppm in feed for 5 days): 0 Logarithmic number of collected cells per 1 g of tissue | Escherichia coli collected in Lung (Escherichia coli; 25 ppm in feed for 5 days): 0 Logarithmic number of collected cells per 1 g of tissue | Escherichia coli collected in Trachea (Escherichia coli; 25 ppm in feed for 5 days): 0 Logarithmic number of collected cells per 1 g of tissue | Chickens developing disease in air sac (naked eye observation) (Escherichia coli; 25 ppm in feed for 5 days): 1 | No. of dead chickens (Escherichia coli; 25 ppm in feed for 5 days): 0 | Escherichia coli collected in Air sac (Escherichia coli; 50 ppm in feed for 5 days): 0 Logarithmic number of collected cells per 1 g of tissue | Escherichia coli collected in Lung (Escherichia coli; 50 ppm in feed for 5 days): 0 Logarithmic number of collected cells per 1 g of tissue | Escherichia coli collected in Trachea (Escherichia coli; 50 ppm in feed for 5 days): 0 Logarithmic number of collected cells per 1 g of tissue | Chickens developing disease in air sac (naked eye observation) (Escherichia coli; 50 ppm in feed for 5 days): 0 | No. of dead chickens (Escherichia coli; 50 ppm in feed for 5 days): 0 | Mycoplasma gallisepticum collected in Air sac (Mycoplasma gallisepticum; 50 ppm in feed for 5 days): 2.32 Logarithmic number of collected cells per 1 g of tissue | Mycoplasma gallisepticum collected in Infraorbital sinus (Mycoplasma gallisepticum; 50 ppm in feed for 5 days): 0/5 | Mycoplasma gallisepticum collected in Lung (Mycoplasma gallisepticum; 50 ppm in feed for 5 days): 0 Logarithmic number of collected cells per 1 g of tissue | Mycoplasma gallisepticum collected in Trachea (Mycoplasma gallisepticum; 50 ppm in feed for 5 days): 0 Logarithmic number of collected cells per 1 g of tissue | Chickens developing disease in air sac (naked eye observation) (Mycoplasma gallisepticum; 50 ppm in feed for 5 days): 0 | No. of dead chickens (Mycoplasma gallisepticum; 50 ppm in feed for 5 days): 0 | Mycoplasma gallisepticum collected in Air sac (Mycoplasma gallisepticum; 75 ppm in feed for 5 days): 0 Logarithmic number of collected cells per 1 g of tissue | Mycoplasma gallisepticum collected in Infraorbital sinus (Mycoplasma gallisepticum; 75 ppm in feed for 5 days): 0/5 | Mycoplasma gallisepticum collected in Lung (Mycoplasma gallisepticum; 75 ppm in feed for 5 days): 0 Logarithmic number of collected cells per 1 g of tissue | Mycoplasma gallisepticum collected in Trachea (Mycoplasma gallisepticum; 75 ppm in feed for 5 days): 0 Logarithmic number of collected cells per 1 g of tissue | Chickens developing disease in air sac (naked eye observation) (Mycoplasma gallisepticum; 75 ppm in feed for 5 days): 0 | No. of dead chickens (Mycoplasma gallisepticum; 75 ppm in feed for 5 days): 0 | Mycoplasma gallisepticum collected in Air sac (Mycoplasma gallisepticum; 100 ppm in feed for 5 days): 0 Logarithmic number of collected cells per 1 g of tissue | Mycoplasma gallisepticum collected in Infraorbital sinus (Mycoplasma gallisepticum; 100 ppm in feed for 5 days): 0/5 | Mycoplasma gallisepticum collected in Lung (Mycoplasma gallisepticum; 100 ppm in feed for 5 days): 0 Logarithmic number of collected cells per 1 g of tissue | Mycoplasma gallisepticum collected in Trachea (Mycoplasma gallisepticum; 100 ppm in feed for 5 days): 0 Logarithmic number of collected cells per 1 g of tissue | Chickens developing disease in air sac (naked eye observation) (Mycoplasma gallisepticum; 100 ppm in feed for 5 days): 0 | No. of dead chickens (Mycoplasma gallisepticum; 100 ppm in feed for 5 days): 0 | antimicrobial activities compared with Ofloxacin [14]: higher antimicrobial activities than its known racemic isomer (Ofloxacin)
